Measured values published in patent US20230095103A1, “COMPOSITIONS AND METHODS CONTAINING REDUCED NICOTINAMIDE RIBOSIDE FOR PREVENTION AND TREATMENT OF LUNG DISEASES AND CONDITIONS” (SOCIETE DES PRODUITS NESTLE S.A., priority 2020, published 2023).
Counter-ions that a name gives are not always drawn. Like-named read-outs stand apart in the source and are kept apart here. Each block holds one molecule with its values, some of them ahead of it.

Assays:
adenosine kinase (AK) = molecular target: T1, adenosine kinase (AK) (Mus musculus, UniProt P55264); assay: NRH-induced NAD+ synthesis with adenosine kinase inhibitors in AML12 cells; format: cell-based; conditions: for effect of AK inhibitor on the action of NRH (NAD+ synthesis): inhibitor given before NRH treatment
T1 construct: endogenous in cells; host or cells: AML12 cells
T1 sequence (P55264 whole entry): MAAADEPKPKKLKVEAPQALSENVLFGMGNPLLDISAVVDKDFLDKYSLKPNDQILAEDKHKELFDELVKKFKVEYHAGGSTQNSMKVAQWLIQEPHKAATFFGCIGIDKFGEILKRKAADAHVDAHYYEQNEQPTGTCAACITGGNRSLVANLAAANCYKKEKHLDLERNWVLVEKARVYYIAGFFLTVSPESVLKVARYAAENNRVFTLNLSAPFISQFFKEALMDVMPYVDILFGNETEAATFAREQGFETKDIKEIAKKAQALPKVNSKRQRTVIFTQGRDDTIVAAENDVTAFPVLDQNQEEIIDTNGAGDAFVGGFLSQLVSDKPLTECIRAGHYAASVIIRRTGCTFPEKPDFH
Procedure: AML12 cells were treated with an adenosine kinase inhibitor (5-IT; […]) for 1 hour prior to NRH treatment at the doses indicated. Then, 1 hour later, acidic extracts were obtained to measure NAD^+ levels. All values in the figure are expressed as mean+/−SEM of 3 independent experiments. * indicates statistical difference at p<0.05 vs. the respective vehicle treated group.

[1] = tested on: intracellular NRH, NMNH, NR and NMN; assay: Intracellular NAD-related metabolites after NRH or NR treatment; format: cell-based; conditions: for intracellular detection of NRH and NMNH: 5 minutes after treatment
From the text: (§1) Levels of NRH and other NAD-related metabolites in biological samples were obtained by using a cold liquid-liquid extraction using a mixture of methanol:water:chloroform in 5:3:5 (v/v), from which the polar phase was recovered for hydrophilic interaction ultra-high performance liquid chromatography mass spectrometry (UHPLC-MS) analysis. The UHPLC consisted of a binary pump, a cooled autosampler, and a column oven (DIONEX Ultimate 3000 UHPLC+ Focused, Thermo Scientific), connected to a triple quadrupole spectrometer (TSQ Vantage, Thermo Scientific) equipped with a heated electrospray ionisation (H-ESI) source. Of each sample, 2 μL were injected into the analytical column (2.1 mm×150 mm, 5 μm pore size, 200 Å HILICON iHILIC®-Fusion(P)), guarded by a pre-column (2.1 mm×20 mm, 200 Å HILICON iHILIC®-Fusion(P) Guard Kit) operating at 35° C. The mobile phase (10 mM ammonium acetate at pH 9, A, and acetonitrile, B) was pumped at 0.25 mL/min flow rate over a linear gradient of decreasing organic solvent (0.5-16 min, 90-25% B), followed by re-equilibration for a total run time of 30 min. The MS operated in positive mode at 3500 V with multiple reaction monitoring (MRM). The software Xcalibur v4.1.31.9 (Thermo Scientific) was used for instrument control, data acquisition and processing. Retention time and mass detection was confirmed by authentic standards.
A path in which NRH would be converted to NMNH, then to NADH and this would be finally oxidized to NAD+.

[2] = Stability of NRH or NR spiked in isolated mouse plasma; format: in vitro ADME
Procedure: (§2) NR degradation to NAM has been proposed as a limitation for its pharmacological efficacy. To evaluate whether NRH was also susceptible to degradation to NAM, we spiked NRH or NR in isolated mouse plasma. […] We also tested the stability of NRH in other matrixes. […] Finally, we also certified NRH stability in water (pH=7, at room temperature) for 48 h.

[3] = Stability in FBS supplemented media; format: in vitro ADME
Procedure: as §2

[4] = Intraperitoneal injection of NR or NRH in mice: tissue NAD+ and circulating metabolites; format: in vivo; conditions: for NAD+ levels in liver, muscle and kidney: mice, IP 500 mg/kg, after 1 h
Procedure: The above results prompted us to test whether NRH could act as an effective NAD+ precursor in vivo. For this, we first intraperitoneally (IP) injected mice with either NR or NRH (500 mg/kg). […] Importantly, NRH was detectable in circulation after IP injection.

[5] = format: in vivo, mice
Procedure: 8 week-old C57BI/6NTac mice were orally gavaged with either saline (as vehicle), NR (500 mg/kg) or NRH (500 mg/kg). After 1 hour, liver, skeletal muscle and kidney NAD+ levels were evaluated. All results are expressed as mean+/−SEM of n=5 mice per group. * indicates statistical difference at p<0.05 vs. vs. saline-treated mice. # indicates statistical difference at p<0.05 vs. NR treated mice.
Oral administration of NRH led to very similar results to those observed after IP administration. […] NRH was detectable in plasma 1 h after oral administration. In contrast, NR levels were undetectable at 1 h after NR administration.

NRK1 = assay: NAD+ levels in primary hepatocytes from control or NRK1 knockout mice; conditions: after 1 hour of treatment
AML12 hepatocytes = assay: Intracellular NAD+ levels in AML12 hepatocytes after NRH or NR treatment (dose-response, time course); format: cell-based
From the text: as §1
Even at such relatively low dose, NRH achieved similar increases in intracellular NAD+ levels to those reached with NR at 50-fold higher concentrations. NRH achieved maximal effects on NAD+ synthesis around the millimolar range, managing to increase intracellular NAD+ levels by more than 10-fold.
NRH actions were also extremely fast (FIG. 3), as significant increases in NAD+ levels were observed within 5 minutes after NRH treatment.

C2C12 myotubes = assay: NAD+ levels in C2C12 myotubes after NRH treatment; format: cell-based
Procedure: (§3) The ability of NRH to potently increase NAD+ was tested as well in other cell type models.

INS1-cells = assay: NAD+ levels in INS1-cells after NRH treatment; format: cell-based
Procedure: as §3

3T3 fibroblasts = assay: NAD+ levels in 3T3 fibroblasts after NRH treatment; format: cell-based
Procedure: as §3

[6] = tested on: equilibrative nucleoside transporters (ENTs); assay: NRH-induced NAD+ synthesis under ENT blockade with NBTI; format: cell-based; conditions: in the presence of NBTI
From the text: In order to understand the exact path by which NRH synthesizes NAD+, we initially evaluated whether NRH, could be transported into the cell by equilibrative nucleoside transporters (ENTs).

NAMPT = molecular target: T2, NAMPT (Mus musculus, UniProt Q99KQ4); assay: NRH action in the presence of the NAMPT inhibitor FK866; format: cell-based; conditions: with FK866, a NAMPT inhibitor
T2 construct: endogenous in cells
T2 sequence (Q99KQ4 whole entry): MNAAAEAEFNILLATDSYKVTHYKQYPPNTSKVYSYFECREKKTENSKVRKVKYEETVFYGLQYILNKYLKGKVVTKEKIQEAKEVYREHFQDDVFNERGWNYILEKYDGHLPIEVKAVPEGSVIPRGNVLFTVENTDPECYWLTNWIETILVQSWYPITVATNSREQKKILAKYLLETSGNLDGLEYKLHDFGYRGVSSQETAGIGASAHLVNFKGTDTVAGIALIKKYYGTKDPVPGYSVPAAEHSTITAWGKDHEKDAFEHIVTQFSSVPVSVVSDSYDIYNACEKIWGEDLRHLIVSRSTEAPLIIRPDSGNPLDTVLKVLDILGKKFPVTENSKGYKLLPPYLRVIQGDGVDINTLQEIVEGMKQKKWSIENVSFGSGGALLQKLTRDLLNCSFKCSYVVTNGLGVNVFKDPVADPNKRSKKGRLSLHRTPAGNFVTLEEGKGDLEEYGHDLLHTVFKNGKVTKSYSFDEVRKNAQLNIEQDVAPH

[7] = format: physicochemical
Procedure: as §2

[8] = design: species or system mice; conditions: mouse, in vivo, 250 mg/kg
Procedure: 8 week-old C57BI/6NTac mice were orally gavaged with either saline (as vehicle), and NRH (250 mg/kg). After 2 hours, liver, skeletal muscle and kidney NRH levels were evaluated. All results are expressed as mean+/−SEM of n=4 mice per group, as areas under the signal by LC-MS analysis, corrected by total protein amount of tissue.

[9] = tested on: Salmonella enterica serovar Typhimurium; assay: Anti-bacterial response of monocyte-derived macrophages against Salmonella (CFU counts); format: cell-based; conditions: 0.01 mM NRH for 42 h prior to infection, MOI 10
Procedure: Monocyte-derived macrophages were treated with 0.01 mM NRH for 42 h prior to infection with Salmonella enterica serovar Typhimurium for 1 h using a multiplicity of infection of 10. Following infection, macrophages were treated with gentamicin for 2 h before cell lysis. Values show absolute colony forming unit (CFU) counts with each dot representing one donor and each line representing paired samples. Graphs show pooled data of 2 independent experiments with 2-3 donors/experiment.

NMNAT = assay: NRH-induced NAD+ synthesis with the NMNAT inhibitor gallotannin; format: cell-based
From the text: As a follow-up step, NMNAT enzymes could catalyze the transition from NMNH to NADH.

[10] = isolated mouse plasma, 2 h of incubation

Structure (SMILES): Nc1ncnc2c1c(I)cn2[C@@H]1O[C@H](CO)[C@@H](O)[C@H]1O [5-IT, 5-iodotubercidin]
- formation of NR and NMN after NRH treatment (adenosine kinase (AK); 5-IT treatment): prevented
- effect of AK inhibitor on the action of NRH (NAD+ synthesis) (adenosine kinase (AK)): fully ablated the action of NRH

- effect of AK inhibitor on the action of NRH (NAD+ synthesis) (adenosine kinase (AK)): confirmed
Structure (SMILES): Nc1ncnc2nc(-c3ccc(N4CCOCC4)nc3)cc(-c3cccc(Br)c3)c12 [ABT-702]

- generation of NAM in plasma [2, 10]: increase in NAM
- levels of the compound in plasma [2, 10]: decayed
- degradation to NAM ([3]; FBS supplemented media): occurs
- circulating NAM after NR treatment relative to NRH treatment ([5]; C57BI/6NTac, mouse, in vivo, po, 1 h): −4 fold
- NAD+ levels in NRK1 KO derived primary hepatocytes (NRK1): failed to increase NAD+ levels
Structure (SMILES): NC(=O)c1ccc[n+]([C@@H]2O[C@H](CO)[C@@H](O)[C@H]2O)c1 [NR, 1-b-D-ribofuranosyl-3-pyridinecarboxamide salt, reference compound]
- intracellular detection of NRH and NMNH [1]: not
- NAD+ levels in liver, muscle and kidney [4]: increased

Structure (SMILES): NC(=O)C1=CN([C@@H]2O[C@H](CO)[C@@H](O)[C@H]2O)C=CC1 [NRH, dihydro-1-beta-D-ribofuranosyl-3-pyridinecarboxamide]
- time to significant increase in NAD+ levels after treatment (AML12 hepatocytes; AML12 hepatocytes, FIG. 3): ≤ 5 min
- increase of intracellular NAD+ levels at maximal effect (AML12 hepatocytes; AML12 hepatocytes, around the millimolar range): more than 10 fold
- ability to increase intracellular NAD+ (AML12 hepatocytes; AML12 hepatocytes, compared with NR): superior to that of NR
- concentration at which NAD+ levels are significantly increased (AML12 hepatocytes; AML12 hepatocytes, dose-response, FIG. 2): 10 µM
- NR concentration needed for similar increase in intracellular NAD+, relative to NRH (AML12 hepatocytes; NRH at 10 μM): 50 fold
- NAD+ levels (C2C12 myotubes): highly elevated NAD+ levels
- NAD+ levels (INS1-cells): highly elevated NAD+ levels
- NAD+ levels (3T3 fibroblasts): highly elevated NAD+ levels
- intracellular detection of NRH and NMNH [1]: could be detected
- increase in intracellular NR and NMN ([1]; after NRH treatment, compared with NR): greater than that triggered by NR itself
- capacity as extracellular NAD+ precursor under ENT blockade [6]: largely lost its capacity as an extracellular NAD+ precursor
- dependence of NRH action on NAMPT (NAMPT): NAMPT-independent
- generation of NMNH, NADH and NAD+ from NRH (adenosine kinase (AK); upon inhibition of AK, metabolomic analyses): fully blunted
- NR production in plasma [2]: did not lead to NR production
- degradation to NAM [3]: did not degrade to NAM
- stability in water [7]: 48 h
- NAD+ levels in liver, muscle and kidney [4]: increased
- NR in circulation after NRH treatment ([4]; mouse, in vivo, ip): much higher levels than those detected after NR injection itself
- NRH in circulation ([4]; mouse, in vivo, ip): detectable
- NAM levels in circulation ([4]; mouse, in vivo, ip, 500 mg/kg): only a very mild increase
- effect on hepatic NAD+ levels ([5]; mice, oral administration, compared with NR): more potent effect on hepatic NAD+ levels than NR
- NRH in liver, kidney and muscle [8]: found intact, in high levels
- anti-bacterial macrophage response (CFU counts) [9]: able to augment anti-bacterial macrophage response

Structure (SMILES): O=C(OC[C@H]1O[C@@H](OC(=O)c2cc(O)c(O)c(OC(=O)c3cc(O)c(O)c(O)c3)c2)[C@H](OC(=O)c2cc(O)c(O)c(OC(=O)c3cc(O)c(O)c(O)c3)c2)[C@@H](OC(=O)c2cc(O)c(O)c(OC(=O)c3cc(O)c(O)c(O)c3)c2)[C@@H]1OC(=O)c1cc(O)c(O)c(OC(=O)c2cc(O)c(O)c(O)c2)c1)c1cc(O)c(O)c(OC(=O)c2cc(O)c(O)c(O)c2)c1 [gallotannin]
- effect of NMNAT inhibitor on NAD+ synthesis after NRH treatment (NMNAT): largely compromised NAD+ synthesis after NRH treatment
- NRH action after gallotannin treatment (NMNAT; NRH at maximal doses (0.5 mM)): part of the NRH action remained
- NRH action after gallotannin treatment (NMNAT; NRH at submaximal doses): totally blocked
